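A five-concentration, 48-hour dose response in 96-well plates underlies each endpoint, interpolated linearly between surrounding concentrations. The concentration for 50% growth inhibition is given as GI50. At the TGI there is no net growth.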
Key:
Test in all cases: DTP human tumour cell line panel, 48 h
SF-539 CNS = system: SF-539 CNS
IGROV1 ovarian = system: IGROV1 ovarian
786-0 renal = system: 786-0 renal
SK-MEL-2 melanoma = system: SK-MEL-2 melanoma
NCI-H522 lung = system: NCI-H522 lung
UACC-62 melanoma = system: UACC-62 melanoma
OVCAR-3 ovarian = system: OVCAR-3 ovarian
HCT-116 colon = system: HCT-116 colon
LOX IMVI melanoma = system: LOX IMVI melanoma
RXF 393 renal = system: RXF 393 renal
TK-10 renal = system: TK-10 renal
EKVX NSCLC = system: EKVX NSCLC
MOLT-4 leukemia = system: MOLT-4 leukemia
UO-31 renal = system: UO-31 renal
SK-OV-3 ovarian = system: SK-OV-3 ovarian
NCI-H460 lung = system: NCI-H460 lung
SK-MEL-28 melanoma = system: SK-MEL-28 melanoma
SF-268 CNS = system: SF-268 CNS
SF-295 CNS = system: SF-295 CNS
NCI/ADR-RES ovarian = system: NCI/ADR-RES ovarian
HL-60(TB) leukemia = system: HL-60(TB) leukemia
A498 renal = system: A498 renal
COLO 205 colon = system: COLO 205 colon
NCI-H226 lung = system: NCI-H226 lung
OVCAR-5 ovarian = system: OVCAR-5 ovarian
HCT-15 colon = system: HCT-15 colon
MDA-MB-435 = system: MDA-MB-435
MDA-MB-231 breast = system: MDA-MB-231 breast
CAKI-1 renal = system: CAKI-1 renal

Molecule `CC(=O)O[C@H]1C(=O)[C@@]2(C)[C@H]([C@H](OC(=O)c3ccccc3)[C@]3(O)C[C@H](OC(=O)[C@H](OC(=O)OC[C@@H]4COC(C)(C)O4)[C@@H](NC(=O)c4ccccc4)c4ccccc4)C(C)=C1C3(C)C)[C@]1(OC(C)=O)CO[C@@H]1C[C@@H]2O` has a GI50 (SF-539 CNS) of 71.5 nM, a TGI (SF-539 CNS) of 2210 nM and a GI50 (IGROV1 ovarian) of 62 nM. It also gave a TGI (IGROV1 ovarian) of over 33300 nM, a GI50 (786-0 renal) of 327 nM and a TGI (786-0 renal) of over 33300 nM. For the same molecule, the GI50 (SK-MEL-2 melanoma) was 175 nM, the TGI (SK-MEL-2 melanoma) was over 33300 nM and the GI50 (NCI-H522 lung) was 37.5 nM. The TGI (NCI-H522 lung) was over 33300 nM, the GI50 (UACC-62 melanoma) was 58.7 nM and the TGI (UACC-62 melanoma) was over 33300 nM. The GI50 (OVCAR-3 ovarian) was 18.3 nM, the GI50 (HCT-116 colon) was 11.2 nM and the TGI (HCT-116 colon) was over 33300 nM. For the same molecule, the GI50 (LOX IMVI melanoma) was 18.8 nM, the TGI (LOX IMVI melanoma) was over 33300 nM and the GI50 (RXF 393 renal) was 45.4 nM. The TGI (RXF 393 renal) was 279 nM, the GI50 (TK-10 renal) was 656 nM and the TGI (TK-10 renal) was over 33300 nM. For the same molecule, the GI50 (EKVX NSCLC) was 190 nM, the TGI (EKVX NSCLC) was over 33300 nM and the GI50 (MOLT-4 leukemia) was 57.1 nM. For the same molecule, the TGI (MOLT-4 leukemia) was over 33300 nM, the GI50 (UO-31 renal) was 1790 nM and the TGI (UO-31 renal) was over 33300 nM. The GI50 (SK-OV-3 ovarian) was 1020 nM, the TGI (SK-OV-3 ovarian) was over 33300 nM and the GI50 (NCI-H460 lung) was 7.74 nM. It also gave a TGI (NCI-H460 lung) of over 33300 nM, a GI50 (SK-MEL-28 melanoma) of over 33300 nM and a TGI (SK-MEL-28 melanoma) of over 33300 nM. The GI50 (SF-268 CNS) was 251 nM, the TGI (SF-268 CNS) was over 33300 nM and the GI50 (SF-295 CNS) was 59.8 nM. It also gave a TGI (SF-295 CNS) of 574 nM, a GI50 (NCI/ADR-RES ovarian) of over 33300 nM and a TGI (NCI/ADR-RES ovarian) of over 33300 nM. The GI50 (HL-60(TB) leukemia) was 24.1 nM, the TGI (HL-60(TB) leukemia) was over 33300 nM and the GI50 (A498 renal) was 79.9 nM. It also gave a TGI (A498 renal) of 758 nM, a GI50 (COLO 205 colon) of 29.2 nM and a TGI (COLO 205 colon) of over 33300 nM. The GI50 (NCI-H226 lung) was 506 nM, the TGI (NCI-H226 lung) was over 33300 nM and the GI50 (OVCAR-5 ovarian) was 60.3 nM. It also gave a TGI (OVCAR-5 ovarian) of over 33300 nM, a GI50 (HCT-15 colon) of 552 nM and a TGI (HCT-15 colon) of over 33300 nM. The GI50 (MDA-MB-435) was 4.81 nM, the TGI (MDA-MB-435) was 23.7 nM and the GI50 (MDA-MB-231 breast) was 143 nM. It also gave a TGI (MDA-MB-231 breast) of over 7260 nM and a GI50 (CAKI-1 renal) of 182 nM.

From PubChem BioAssay (NCI)
